Assay type in all cases: cell-based
In test [1] the test system is human colon carcinoma cell line HCT116. The test can be described thus: Inhibition of cell proliferation (GI50) in HCT116 cells. The settings on record: HCT-116, Table IV, read-out: GI50 in Multi-Cancer Cells HCT116. Here is the method:
(§1) Human breast cancer cell lines T-47D, MX-1 and MDAMB435, human colon cancer cell line HT29, and human lung cancer cell line H1299 were grown and harvested as in Example 75. An aliquot of […] of cells (4.4×10^4 cells/mL) was added to a well of a 96-well microtiter plate containing 5 μL of a 10% DMSO in RPMI-1640 media solution containing 10 nM to 100 μM of N-(2,5-dimethoxyphenyl)-2-methylthieno[3,2-d]pyrimidin-4-amine (1 nM to 10 μM final). An aliquot of 45 μL of cells was added to a well of a 96-well microtiter plate containing 5 μL of a 10% DMSO in RPMI-1640 media solution without compound as the control sample for maximal cell proliferation (Lmax). The samples were mixed by agitation and then incubated at 37° C. for 48 h in a 5% CO2-95% humidity incubator. After incubation, the samples were removed from the incubator and 25 μL of CellTiter-Glo™ reagent (Promega) was added. The samples were mixed by agitation and incubated at room temperature for 10-15 min. Plates were then read using a luminescent plate reader (Model SPECTRAfluor Plus, Tecan) to give Ltest values.
(§2) Baseline for GI50 (dose for 50% inhibition of cell proliferation) of initial cell numbers was determined by adding an aliquot of 45 μL of cells or 45 μL of media, respectively, to wells of a 96-well microtiter plate containing 5 μL of a 10% DMSO in RPMI-1640 media solution. The samples were mixed by agitation and then incubated at 37° C. for 0.5 h in a 5% CO2-95% humidity incubator. After incubation, the samples were removed from the incubator and 25 μL of CellTiter-Glo™ reagent (Promega) was added. The samples were mixed by agitation and incubated at 37° C. for 10-15 min at room temperature in a 5% CO2-95% humidity incubator. Fluorescence was read as above, (LStart) defining luminescence for initial cell number used as baseline in GI50 determinations.
(§3) GI50 (dose for 50% inhibition of cell proliferation) is the concentration where [(LTest−Lstart)/(LMax−Lstart)]=0.5.
(§4) Several compounds were tested in multi cancer cell lines, including human breast cancer cell lines T-47D, MX-1, SKBR3 and MDAMB435, human hepatocellular carcinoma cell line SNU398, human colon carcinoma cell line HCT116, human sarcoma cell line MES-SA and multi-drug resistant (MDR) human sarcoma cell line MES-SA/ADR, murine leukemia cell line P388 and multi-drug resistant (MDR) murine leukemia cell line P388ADR, and the data are summarized in Table IV.

In test [2] the test system is human breast cancer cell line T-47D. The test can be described thus: Caspase cascade activation (DEVD-R110 fluorogenic substrate) in T-47D cells. The following applies: Homo sapiens, T47D. Put shortly: (§5)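 Cells were exposed to compound at 0.016 to 10 μM final for 24 h or 48 h at 37 °C. They were then lysed with 14 μM N-(Ac-DEVD)-N′-ethoxycarbonyl-R110 in lysolecithin/DTT/PIPES buffer pH 7.2 for 3 h at room temperature (ex 485/em 530 nm). EC50 came from a sigmoidal fit of net RFU relative to untreated control.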

Test [3] deals with human lung cancer cell line H1299. Kind of test: Caspase cascade activation in H1299 cells. The settings on record: NCI-H1299, 24 h, read-out: Caspase activation Potency EC50 H1299 (24 h). The gist of the method:
as §5

In test [4] the test system is human breast cancer cell line SKBR3. Kind of test: Inhibition of cell proliferation (GI50) in SKBR3 cells. The settings on record: SK-BR-3, Table IV, read-out: GI50 in Multi-Cancer Cells SKBR3. Here is the method: as §1, §2, §3, §4
Test [5] deals with murine leukemia cell line P388. The test can be described thus: Inhibition of cell proliferation (GI50) in P388 cells. The settings on record: Mus musculus, Table IV, read-out: GI50 in Multi-Cancer Cells P388. Here is the method:
as §1, §2, §3, §4

Test [6] concerns multi-drug resistant (MDR) murine leukemia cell line P388ADR. Kind of test: Inhibition of cell proliferation (GI50) in P388/ADR cells. The settings on record: Mus musculus, Table IV, read-out: GI50 in Multi-Cancer Cells P388/ADR. Here is the method: as §1, §2, §3, §4
Test [7] has as its system human hepatocellular carcinoma cell line SNU398. The test can be described thus: Caspase cascade activation in SNU398 cells. The settings on record: Homo sapiens, SNU-398, 48 h, read-out: Caspase activation Potency EC50 SNU398 (48 h). Put shortly:
as §5

Test [8] has as its system human breast cancer cell line T-47D. Kind of test: Inhibition of cell proliferation (GI50, CellTiter-Glo) in T-47D cells. The settings on record: T47D cells. The protocol:
as §1, §2, §3

The mark [9] stands for this setting: 24 h, T47D cells, 24 h, read-out: Caspase activation Potency EC50 T47D (24 h).
Where [10] appears, read: 48 h, T-47D cells, 48 h, read-out: Caspase activation Potency EC50 T-47D (48 h).
The mark [11] stands for this setting: Table IV, read-out: GI50 in Multi-Cancer Cells T47D.

This note sets out measurements from patent US20070099877A1, “N-aryl-thienopyrimidin-4-amines and analogs as activators of caspases and inducers of apoptosis and the use thereof” (Cytovia, Inc., priority 2005, published 2007).

Structures can show the parent of a compound that is named as a salt. Where two headings read alike, the source gives them in different places.

By EC50 is commonly meant the concentration at which the effect is half-maximal.

For the compound `COc1cc(Nc2ncnc3ccsc23)cc(OC)c1` [Example 12, N-(3,5-Dimethoxyphenyl)thieno[3,2-d]pyrimidin-4-amine hydrochloride], the GI50 was determined as 1250 nM in test [1]; 60 nM in test [4]; 540 nM in test [5]; 296 nM in test [6]; 20 nM in test [8] (setting [11]). Moreover, the EC50 was 38 nM in test [2] (setting [9]), 62 nM in test [2] (setting [10]), 303 nM in test [3] and 249 nM in test [7].

For the compound `COc1ccc(OC)c(Nc2ncnc3ccsc23)c1` [Example 2, N-(2,5-Dimethoxyphenyl)thieno[3,2-d]pyrimidin-4-amine], the GI50 in test [1] was determined as 4980 nM; in test [4] it was 500 nM; in test [5] it was 2060 nM; in test [6], 2600 nM; in test [8] (Table III, 48 h, read-out: GI50 in Cancer Cells T47D), 65 nM; in test [8] (setting [11]), 340 nM. The EC50 in test [2] (setting [9]) was 61 nM; in test [2] (setting [10]), 105 nM; in test [3], 2910 nM; in test [7] it was 1610 nM.
